Experimental data as given in US9301951B2 (Ardelyx, Inc., priority 2010, dated 2016).

Each molecule was assayed against T1, rat NaP2b (SLC34A2) (Rattus norvegicus, UniProt Q9JJ09) (assay: Inhibition of NaP2b-mediated Pi (33P) uptake in transfected HEK293 cells, rat NaP2b). Conditions: HEK293 cells transfected with rat NaP2b, 100 uM phosphate, 0.1 nM to 30 uM, read-out: pIC50 range for rat Nap2b (converted).
T1 construct: host or cells: HEK293
T1 sequence (Q9JJ09 1-695): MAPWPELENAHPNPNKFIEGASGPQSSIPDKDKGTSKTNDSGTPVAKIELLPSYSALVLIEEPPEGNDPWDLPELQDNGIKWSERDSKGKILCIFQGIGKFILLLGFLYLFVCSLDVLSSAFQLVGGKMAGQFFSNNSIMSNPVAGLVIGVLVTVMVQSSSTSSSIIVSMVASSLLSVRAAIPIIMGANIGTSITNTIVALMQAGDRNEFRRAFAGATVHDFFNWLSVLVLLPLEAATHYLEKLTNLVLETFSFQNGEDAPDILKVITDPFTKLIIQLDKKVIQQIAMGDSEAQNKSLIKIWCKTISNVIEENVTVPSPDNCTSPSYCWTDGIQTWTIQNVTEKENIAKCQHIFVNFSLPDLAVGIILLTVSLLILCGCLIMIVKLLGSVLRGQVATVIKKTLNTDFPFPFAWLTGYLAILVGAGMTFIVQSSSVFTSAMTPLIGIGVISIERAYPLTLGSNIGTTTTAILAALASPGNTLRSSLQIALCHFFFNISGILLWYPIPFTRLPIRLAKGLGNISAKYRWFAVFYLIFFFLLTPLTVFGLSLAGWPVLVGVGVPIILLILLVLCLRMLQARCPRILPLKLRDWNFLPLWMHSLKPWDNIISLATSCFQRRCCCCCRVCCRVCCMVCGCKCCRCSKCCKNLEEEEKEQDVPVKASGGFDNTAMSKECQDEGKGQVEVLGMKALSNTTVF
Assay type: cell-based
Procedure: HEK293 cells were obtained from the American Type Culture collection and propagated per their instructions. Expression clones for rat and human NaP2b (SLC34A2) were obtained from Open Biosystems (Catalog numbers MRN1768-9510282, and MHS1010-99823026, respectively). The sequence of the human protein was mutated to insert a threonine after residue 37, and to introduce a N39D mutation.
Cells were seeded into 96-well plates at 25,000 cells/well and cultured overnight. Lipofectamine 2000 (Invitrogen) was used to introduce the NaP2b cDNA, and the cells were allowed to approach confluence during a second overnight incubation. […] Cells were then overlayed with either choline uptake buffer or sodium uptake buffer (14 mM Tris, 137 mM sodium chloride, 5.4 mM KCl, 2.8 mM CaCl2, 1.2 mM MgSO4, 100 uM KH2PO4, PiT-silencing agent, 1 mg/mL Bovine Serum Albumin, pH 7.4) containing 6-9 uCi/mL ^33P orthophosphoric acid (Perkin Elmer) and test compound. Each compound was tested at twelve concentrations ranging from 0.1 nM to 30 uM. Assays were run in duplicate.
Cells were lysed by addition of 20 μL 0.1% Tween 80 followed by 100 μL scintillation fluid, and counted using a TopCount (Perkin Elmer).
pIC50 (the negative log of the […]) values of the test compounds were calculated using GraphPad Prism.

First: CC(=O)NC1CCN(Cc2cccc(C(=O)Nc3ccc(N4CCCCC4)cc3-c3cc(C(=O)NCc4cccc(C(F)(F)F)c4)ccn3)c2)C1 (stereo in doubt) [Example 48, (S)-2-(2-(3-((3-Acetamidopyrrolidin-1-yl)methyl)benzamido)-5-(piperidin-1-yl)phenyl)-N-(3-(trifluoromethyl)benzyl)isonicotinamide]
Second: CN1CCN(CCN(C)Cc2cccc(C(=O)Nc3ccc(N4CCCCC4)cc3-c3cc(C(=O)NCc4cccc(C(F)(F)F)c4)ccn3)c2)CC1 [Example 40, 2-(2-(3-((Methyl(2-(4-methylpiperazin-1-yl)ethyl)amino)methyl)benzamido)-5-(piperidin-1-yl)phenyl)-N-(3-(trifluoromethyl)benzyl)isonicotinamide]
The IC50 of the first is lower: 1 to 7.94 µM for the first, 10 to 31.6 µM for the second.

`O=C(O)CCSCc1cccc(C(=O)Nc2ccc(N3CCCCC3)cc2-c2cc(C(=O)NCc3ccccc3)ccn2)c1` [Example 1.4] and `O=C(O)CCSCc1cccc(C(=O)Nc2ccc(N3CCCC3)cc2-c2cc(C(=O)NCc3cccc(C(F)(F)F)c3)ccn2)c1` [Example 20, 3-((3-((4-(Pyrrolidin-1-yl)-2-(4-((3-(trifluoromethyl)benzyl)carbamoyl)pyridin-2-yl)phenyl)carbamoyl)benzyl)thio)propanoic acid] fall in the same range of IC50: 1 to 7.94 µM for the first, 1 to 7.94 µM for the second.

`O=C(O)CCSCc1cccc(C(=O)Nc2ccc(N3CCCCC3)cc2-c2cc(C(=O)N3CCCC3c3ccccc3)ccn2)c1` (stereo not shown) [Example 1.9] and `O=C(O)CCSCc1cccc(C(=O)Nc2ccc(N3CCCCC3)cc2-c2cc(C(O)CCc3ccccc3)ccn2)c1` (stereo not shown) [Example 6.1, 3-((3-((2-(4-(1-hydroxy-3-phenylpropyl)pyridin-2-yl)-4-(piperidin-1-yl)phenyl)carbamoyl)benzyl)thio)propanoic acid] fall in the same range of IC50: 10 to 31.6 µM for the first, 10 to 31.6 µM for the second.

Compared with `O=C(O)CCSCc1cccc(C(=O)Nc2ccc(N3CCCCC3)cc2-c2cc(C(=O)NCCCCCCCCCCCCNC(=O)c3ccnc(-c4cc(N5CCCCC5)ccc4NC(=O)c4cccc(CSCCC(=O)O)c4)c3)ccn2)c1` [Example 2], `O=C(O)CCSCc1cccc(C(=O)Nc2ccc(N3CCSCC3)cc2-c2cc(C(=O)NCc3cccc(C(F)(F)F)c3)ccn2)c1` [Example 27, 3-((3-((4-Thiomorpholino-2-(4-((3-(trifluoromethyl)benzyl)carbamoyl)pyridin-2-yl)phenyl)carbamoyl)benzyl)thio)propanoic acid] is lower in IC50: 10 to 31.6 µM for the first, 1 to 7.94 µM for the second.

Compared with `CC(C)Oc1ccc(NC(=O)c2cccc(CSCCC(=O)O)c2)c(-c2cc(C(=O)NCc3cccc(C(F)(F)F)c3)ccn2)c1` [Example 15, 3-((3-((4-Isopropoxy-2-(4-((3-(trifluoromethyl)benzyl)carbamoyl)pyridin-2-yl)phenyl)carbamoyl)benzyl)thio)propanoic acid], `CC(C)COc1ccc(NC(=O)c2cccc(CSCCC(=O)O)c2)c(-c2cc(C(=O)NCc3cccc(C(F)(F)F)c3)ccn2)c1` [Example 33] is higher in IC50: 1 to 7.94 µM for the first, 10 to 31.6 µM for the second.

`COCCN(CCOC)c1ccc(NC(=O)c2cccc(CSCCC(=O)O)c2)c(-c2cc(C(=O)NCc3cccc(C(F)(F)F)c3)ccn2)c1` [Example 17, 3-(3-((2-(4-((3-(trifluoromethyl)benzyl)carbamoyl)pyridin-2-yl)-4-(bis(2-methoxyethyl)amino)phenyl)carbamoyl)benzylthio)propanoic acid] and `CCCN(CCC)c1ccc(NC(=O)c2cccc(CSCCC(=O)O)c2)c(-c2cc(C(=O)NCc3cccc(C(F)(F)F)c3)ccn2)c1` [Example 19, 3-((3-((4-(Dipropylamino)-2-(4-((3-(trifluoromethyl)benzyl)carbamoyl)pyridin-2-yl)phenyl)carbamoyl)benzyl)thio)propanoic acid] fall in the same range of IC50: 1 to 7.94 µM for the first, 1 to 7.94 µM for the second.

`O=C(O)CCSCc1cccc(C(=O)Nc2ccc(F)cc2-c2cc(C(=O)NCc3cccc(C(F)(F)F)c3)ccn2)c1` [Example 18, 3-((3-((4-Fluoro-2-(4-((3-(trifluoromethyl)benzyl)carbamoyl)pyridin-2-yl)phenyl)carbamoyl)benzyl)thio)propanoic acid] and `COc1ccc(NC(=O)c2cccc(CSCCC(=O)O)c2)c(-c2cc(C(=O)NCc3cccc(C(F)(F)F)c3)ccn2)c1` [Example 30, 3-((3-((4-Methoxy-2-(4-((3-(trifluoromethyl)benzyl)carbamoyl)pyridin-2-yl)phenyl)carbamoyl)benzyl)thio)propanoic acid] fall in the same range of IC50: 1 to 7.94 µM for the first, 1 to 7.94 µM for the second.

First: O=C(O)CCSCc1cccc(C(=O)Nc2ccccc2-c2cc(C(=O)NCc3cccc(C(F)(F)F)c3)ccn2)c1 [Example 22, 3-((3-((2-(4-((3-(Trifluoromethyl)benzyl)carbamoyl)pyridin-2-yl)phenyl)carbamoyl)benzyl)thio)propanoic acid]
Second: CCOc1ccc(NC(=O)c2cccc(CSCCC(=O)O)c2)c(-c2cc(C(=O)NCc3cccc(C(F)(F)F)c3)ccn2)c1 [Example 29, 3-((3-((4-Ethoxy-2-(4-((3-(trifluoromethyl)benzyl)carbamoyl)pyridin-2-yl)phenyl)carbamoyl)benzyl)thio)propanoic acid]
The IC50 of the first is higher: 10 to 31.6 µM for the first, 1 to 7.94 µM for the second.

Compared with `CN(CCN1CCOCC1)C(=O)c1cccc(C(=O)Nc2ccc(N3CCCCC3)cc2-c2cc(-c3cn(Cc4ccccc4)nn3)ccn2)c1` [Example 24, N1-(2-(4-(1-Benzyl-1H-1,2,3-triazol-4-yl)pyridin-2-yl)-4-(piperidin-1-yl)phenyl)-N3-methyl-N3-(2-morpholinoethyl)isophthalamide], `CC(=O)N1CCN(CCN(C)Cc2cccc(C(=O)Nc3ccc(N4CCCCC4)cc3-c3cc(C(=O)NCc4ccccc4)ccn3)c2)CC1` [Example 41, 2-(2-(3-(((2-(4-Acetylpiperazin-1-yl)ethyl)(methyl)amino)methyl)benzamido)-5-(piperidin-1-yl)phenyl)-N-benzylisonicotinamide] is higher in IC50: 1 to 7.94 µM for the first, 10 to 31.6 µM for the second.

Compared with `O=C(O)CCSCc1cccc(C(=O)Nc2ccc(N3CC4CCCC4C3)cc2-c2cc(C(=O)NCc3cccc(C(F)(F)F)c3)ccn2)c1` (stereo not shown) [Example 28, 3-((3-((4-(Hexahydrocyclopenta[c]pyrrol-2(1H)-yl)-2-(4-((3-(trifluoromethyl)-benzyl)carbamoyl)pyridin-2-yl)phenyl)carbamoyl)benzyl)thio)propanoic acid], `COC1CCN(c2ccc(NC(=O)c3cccc(CSCCC(=O)O)c3)c(-c3cc(C(=O)NCc4cccc(C(F)(F)F)c4)ccn3)c2)CC1` [Example 31, 3-((3-((4-(4-Methoxypiperidin-1-yl)-2-(4-((3-(trifluoromethyl)benzyl)carbamoyl)-pyridin-2-yl)phenyl)carbamoyl)benzyl)thio)propanoic acid] is higher in IC50: 1 to 7.94 µM for the first, 10 to 31.6 µM for the second.

`O=C(O)CCSCc1cccc(C(=O)Nc2ccc(OCC(F)(F)F)cc2-c2cc(C(=O)NCc3cccc(C(F)(F)F)c3)ccn2)c1` [Example 32] and `COCCOc1ccc(NC(=O)c2cccc(CSCCC(=O)O)c2)c(-c2cc(C(=O)NCc3cccc(C(F)(F)F)c3)ccn2)c1` [Example 34, 3-((3-((4-(2-Methoxyethoxy)-2-(4-((3-(trifluoromethyl)benzyl)carbamoyl)pyridin-2-yl)phenyl)carbamoyl)benzyl)thio)propanoic acid] fall in the same range of IC50: 10 to 31.6 µM for the first, 10 to 31.6 µM for the second.

`CCSc1ccc(NC(=O)c2cccc(CSCCC(=O)O)c2)c(-c2cc(C(=O)NCc3cccc(C(F)(F)F)c3)ccn2)c1` [Example 35, 3-((3-((4-(Ethylthio)-2-(4-((3-(trifluoromethyl)benzyl)carbamoyl)pyridin-2-yl)phenyl)carbamoyl)benzyl)thio)propanoic acid] and `O=C(O)CCSCc1cccc(C(=O)Nc2ccc(Oc3ccccc3)cc2-c2cc(C(=O)NCc3cccc(C(F)(F)F)c3)ccn2)c1` [Example 36, 3-((3-((4-Phenoxy-2-(4-((3-(trifluoromethyl)benzyl)carbamoyl)pyridin-2-yl)phenyl)carbamoyl)benzyl)thio)propanoic acid] fall in the same range of IC50: 1 to 7.94 µM for the first, 1 to 7.94 µM for the second.

Molecule `CN(CCN1CCN(S(C)(=O)=O)CC1)Cc1cccc(C(=O)Nc2ccc(N3CCCCC3)cc2-c2cc(C(=O)NCc3cccc(C(F)(F)F)c3)ccn2)c1` [Example 39] has an IC50 of 1 to 7.94 µM.
